Assay results: PMC9090415, “Discovery of small molecule inhibitors of Plasmodium falciparum apicoplast DNA polymerase” (Journal of Enzyme Inhibition and Medicinal Chemistry, 2022)

Biological target: T1, bacteriophage T4 DNA polymerase (Enterobacteria phage T4, UniProt P04415)
T1 construct: made in house
T1 sequence (P04415 1-898): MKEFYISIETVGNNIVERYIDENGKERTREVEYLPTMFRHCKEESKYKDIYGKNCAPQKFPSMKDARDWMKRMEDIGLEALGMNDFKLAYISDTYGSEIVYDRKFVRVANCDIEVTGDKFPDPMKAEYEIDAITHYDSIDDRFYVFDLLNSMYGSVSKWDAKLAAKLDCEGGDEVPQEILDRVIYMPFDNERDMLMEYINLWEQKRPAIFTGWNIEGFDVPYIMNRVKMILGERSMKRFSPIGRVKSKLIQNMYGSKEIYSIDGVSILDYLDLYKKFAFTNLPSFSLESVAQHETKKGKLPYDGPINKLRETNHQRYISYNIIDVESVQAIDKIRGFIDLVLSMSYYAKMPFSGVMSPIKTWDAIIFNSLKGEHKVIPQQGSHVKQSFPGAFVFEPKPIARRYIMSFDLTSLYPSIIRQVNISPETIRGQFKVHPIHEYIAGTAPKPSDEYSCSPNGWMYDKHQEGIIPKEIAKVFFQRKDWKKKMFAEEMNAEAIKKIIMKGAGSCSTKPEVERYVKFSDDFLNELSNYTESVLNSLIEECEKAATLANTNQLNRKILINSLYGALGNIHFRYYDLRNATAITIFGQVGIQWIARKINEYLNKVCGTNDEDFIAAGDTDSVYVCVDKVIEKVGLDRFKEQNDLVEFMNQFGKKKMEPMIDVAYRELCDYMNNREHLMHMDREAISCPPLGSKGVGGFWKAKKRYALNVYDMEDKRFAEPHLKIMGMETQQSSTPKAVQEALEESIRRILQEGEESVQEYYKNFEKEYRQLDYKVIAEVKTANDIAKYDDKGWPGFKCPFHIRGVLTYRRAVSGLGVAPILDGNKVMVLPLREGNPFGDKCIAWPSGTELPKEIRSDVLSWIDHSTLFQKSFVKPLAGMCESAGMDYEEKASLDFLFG
Assay: Counter-screen against bacteriophage T4 DNA polymerase
Format: biochemical
Details: for % inhibition T4 10' 2.5 / % inhibition T4 10' 5 / % inhibition T4 10' 10 / % inhibition T4 10' 20 / % inhibition T4 10' 40 / % inhibition T4 10' 80: read at 10'
Outline: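 Purified T4 DNA polymerase, a B-family enzyme, served as the counter-screen enzyme. Compounds were tested in dose-response format and IC50 values were derived.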

## CC(=O)OCC1=C(C(=O)[O-])N2C(=O)[C@@H](NC(=O)Cc3cccs3)[C@H]2SC1.[Na+] [Molecule 73, CC(=O)OCC1=C(C(=O)[O-])N2[C@H](SC1)[C@@H](C2=O)NC(=O)Cc1cccs1.[Na+]]
DRC-1, concentration 2.5
  % inhibition T4 10' 2.5: 11.7205%
DRC-1, concentration 5
  % inhibition T4 10' 5: 17.9504%
DRC-1, concentration 10
  % inhibition T4 10' 10: 24.8784%
DRC-1, concentration 20
  % inhibition T4 10' 20: 32.107%
DRC-1, concentration 40
  % inhibition T4 10' 40: 49.9492%
DRC-1, concentration 80
  % inhibition T4 10' 80: 43.1529%
DRC-1, read at 70', concentration 2.5
  % inhibition T4 70' 2.5: 9.196%
DRC-1, read at 70', concentration 5
  % inhibition T4 70' 5: 11.8887%
DRC-1, read at 70', concentration 10
  % inhibition T4 70' 10: 17.9088%
DRC-1, read at 70', concentration 20
  % inhibition T4 70' 20: 22.6844%
DRC-1, read at 70', concentration 40
  % inhibition T4 70' 40: 42.1653%
DRC-1, read at 70', concentration 80
  % inhibition T4 70' 80: 41.199%
DRC-1, read at 130', concentration 2.5
  % inhibition T4 130' 2.5: 4.91%
DRC-1, read at 130', concentration 5
  % inhibition T4 130' 5: 7.499%
DRC-1, read at 130', concentration 10
  % inhibition T4 130' 10: 13.1805%
DRC-1, read at 130', concentration 20
  % inhibition T4 130' 20: 16.8593%
DRC-1, read at 130', concentration 40
  % inhibition T4 130' 40: 38.0136%
DRC-1, read at 130', concentration 80
  % inhibition T4 130' 80: 33.8147%
DRC-2, concentration 2.5
  % inhibition T4 10' 2.5: 0.14%
DRC-2, concentration 5
  % inhibition T4 10' 5: 0.574%
DRC-2, concentration 10
  % inhibition T4 10' 10: 12%
DRC-2, concentration 20
  % inhibition T4 10' 20: 17%
DRC-2, concentration 40
  % inhibition T4 10' 40: 26%
DRC-2, concentration 80
  % inhibition T4 10' 80: 36%
DRC-2, read at 40', concentration 2.5
  % inhibition T4 40' 2.5: 0.442%
DRC-2, read at 40', concentration 5
  % inhibition T4 40' 5: 0.491%
DRC-2, read at 40', concentration 10
  % inhibition T4 40' 10: 11%
DRC-2, read at 40', concentration 20
  % inhibition T4 40' 20: 17%
DRC-2, read at 40', concentration 40
  % inhibition T4 40' 40: 25%
DRC-2, read at 40', concentration 80
  % inhibition T4 40' 80: 42%
DRC-2, read at 90', concentration 2.5
  % inhibition T4 90' 2.5: 1.28%
DRC-2, read at 90', concentration 10
  % inhibition T4 90' 10: 10%
DRC-2, read at 90', concentration 20
  % inhibition T4 90' 20: 17%
DRC-2, read at 90', concentration 40
  % inhibition T4 90' 40: 23%
DRC-2, read at 90', concentration 80
  % inhibition T4 90' 80: 41%
DRC-2, read at 180', concentration 2.5
  % inhibition T4 180' 2.5: 0.485%
DRC-2, read at 180', concentration 5
  % inhibition T4 180' 5: -2.85%
DRC-2, read at 180', concentration 10
  % inhibition T4 180' 10: 6.41%
DRC-2, read at 180', concentration 20
  % inhibition T4 180' 20: 14%
DRC-2, read at 180', concentration 40
  % inhibition T4 180' 40: 20%
DRC-2, read at 180', concentration 80
  % inhibition T4 180' 80: 41%

## CC(C)(C)OC(=O)COc1ccc2cc(-c3ccccc3)c(=O)oc2c1 [Molecule 81, O=C(OC(C)(C)C)COc1ccc2c(c1)oc(=O)c(c2)c1ccccc1]
DRC-2, concentration 10
  % inhibition T4 10': 13%
  % inhibition T4 40': 10%
  % inhibition T4 90': 10%
  % inhibition T4 180': 7%
DRC-2, concentration 40
  % inhibition T4 10': 7%
DRC-2, concentration 2.5
  % inhibition T4 40': 16%
  % inhibition T4 90': 16%
  % inhibition T4 180': 13%
DRC-2, concentration 5
  % inhibition T4 40': 13%
  % inhibition T4 90': 13%
DRC-2, concentration 20
  % inhibition T4 40': 6%
  % inhibition T4 90': 6%
DRC-2, concentration 80
  % inhibition T4 40': 6%

## Cc1ccc(NC(=O)Cn2ccc3c(=O)[nH]ccc32)cc1F [Molecule 48, O=C(Cn1ccc2c1cc[nH]c2=O)Nc1ccc(c(c1)F)C]
DRC-2, concentration 5
  % inhibition T4 10': -12%
  % inhibition T4 40': -12%
  % inhibition T4 180': -12%
DRC-2, concentration 10
  % inhibition T4 90': -15%
  % inhibition T4 180': -15%
